Measured values: patent US12491170B2, “Stable treprostinil prodrugs” (United Therapeutics Corporation, priority 2020, dated 2025)
Read-outs that look alike come from different tables or passages of the source.

Assays:
[1] = Stability in cryopreserved hepatocytes, human; settings: for AUC: human
[2] = Stability in human subcutaneous skin homogenate; settings: for AUC: human
[3] = Stability in liver microsomes, rat
[4] = Stability in liver microsomes, human; settings: for AUC: human
[5] = Stability in cryopreserved hepatocytes, dog; settings: for AUC: dog
[6] = dog
[7] = rat
[8] = Stability in cryopreserved hepatocytes, rat; settings: for AUC: rat
[9] = Stability in liver microsomes, dog

SMILES: CCCCCC(CCC1C(O)CC2Cc3c(cccc3OCC(=O)O)CC21)OC(=O)C(C)(C)C (centres unmarked) [XLIX]
- Trep Concentration (μM) 0 min [1]: 0 µM
- Trep Concentration (μM) 15 min [1]: 0.192 µM
- Trep Concentration (μM) 30 min [1]: 0.179 µM
- Trep Concentration (μM) 60 min [1]: 0.217 µM
- Trep Concentration (μM) 120 min [1]: 0.237 µM
- AUC [1]: 23.78 µmol·min/L
- Trep Concentration 0 min [2]: 0 µM
- Trep Concentration 30 min [2]: 0.0159 µM
- Trep Concentration 60 min [2]: 0.0303 µM
- Trep Concentration 120 min [2]: 0.0592 µM
- AUC [2]: 3.62 µmol·min/L
- Trep Concentration 0 min [3]: 0 µM
- Trep Concentration 10 min [3]: 0.00512 µM
- Trep Concentration 20 min [3]: 0.00637 µM
- Trep Concentration 30 min [3]: 0.009 µM
- Trep Concentration 60 min [3]: 0.0074 µM
- Trep Concentration 0 min [4]: 0.137 µM
- Trep Concentration 10 min [4]: 0.171 µM
- Trep Concentration 20 min [4]: 0.174 µM
- Trep Concentration 30 min [4]: 0.163 µM
- Trep Concentration 60 min [4]: 0.125 µM
- AUC [4]: 9.27 µmol·min/L
- Trep Concentration (μM) 0 min [5]: 0 µM
- Trep Concentration (μM) 15 min [5]: 0.0727 µM
- Trep Concentration (μM) 30 min [5]: 0.111 µM
- Trep Concentration (μM) 60 min [5]: 0.19 µM
- Trep Concentration (μM) 120 min [5]: 0.258 µM
- AUC [5]: 19.88 µmol·min/L
- AUC [6]: 25.82 µmol·min/L
- AUC [7]: 0.41 µmol·min/L
- Trep Concentration (μM) 0 min [8]: 0 µM
- Trep Concentration (μM) 15 min [8]: 0.00943 µM
- Trep Concentration (μM) 30 min [8]: 0.0122 µM
- Trep Concentration (μM) 60 min [8]: 0.0182 µM
- Trep Concentration (μM) 120 min [8]: 0.0273 µM
- AUC [8]: 2.05 µmol·min/L
- Trep Concentration 0 min [9]: 0.17 µM
- Trep Concentration 10 min [9]: 0.325 µM
- Trep Concentration 20 min [9]: 0.433 µM
- Trep Concentration 30 min [9]: 0.451 µM
- Trep Concentration 60 min [9]: 0.558 µM

SMILES: CCCCCC(CCC1C(O)CC2Cc3c(cccc3OCC(=O)O)CC21)OC(=O)C(C)C (centres unmarked) [LXVII]
- Trep Concentration (μM) 0 min [1]: 0.0174 µM
- Trep Concentration (μM) 15 min [1]: 0.631 µM
- Trep Concentration (μM) 30 min [1]: 0.572 µM
- Trep Concentration (μM) 60 min [1]: 0.506 µM
- Trep Concentration (μM) 120 min [1]: 0.446 µM
- AUC [1]: 58.62 µmol·min/L
- Trep Concentration 0 min [2]: 0 µM
- Trep Concentration 30 min [2]: 0.224 µM
- Trep Concentration 60 min [2]: 0.408 µM
- Trep Concentration 120 min [2]: 0.657 µM
- AUC [2]: 44.79 µmol·min/L
- Trep Concentration 0 min [3]: 0.281 µM
- Trep Concentration 10 min [3]: 0.369 µM
- Trep Concentration 20 min [3]: 0.419 µM
- Trep Concentration 30 min [3]: 0.471 µM
- Trep Concentration 60 min [3]: 0.433 µM
- Trep Concentration 0 min [4]: 1.02 µM
- Trep Concentration 10 min [4]: 0.877 µM
- Trep Concentration 20 min [4]: 0.755 µM
- Trep Concentration 30 min [4]: 0.664 µM
- Trep Concentration 60 min [4]: 0.393 µM
- AUC [4]: 40.60 µmol·min/L
- Trep Concentration (μM) 0 min [5]: 0.09 µM
- Trep Concentration (μM) 15 min [5]: 0.616 µM
- Trep Concentration (μM) 30 min [5]: 0.554 µM
- Trep Concentration (μM) 60 min [5]: 0.459 µM
- Trep Concentration (μM) 120 min [5]: 0.42 µM
- AUC [5]: 55.64 µmol·min/L
- AUC [6]: 56.58 µmol·min/L
- AUC [7]: 25.20 µmol·min/L
- Trep Concentration (μM) 0 min [8]: 0 µM
- Trep Concentration (μM) 15 min [8]: 0.215 µM
- Trep Concentration (μM) 30 min [8]: 0.217 µM
- Trep Concentration (μM) 60 min [8]: 0.189 µM
- Trep Concentration (μM) 120 min [8]: 0.172 µM
- AUC [8]: 21.77 µmol·min/L
- Trep Concentration 0 min [9]: 0.987 µM
- Trep Concentration 10 min [9]: 0.972 µM
- Trep Concentration 20 min [9]: 0.982 µM
- Trep Concentration 30 min [9]: 0.993 µM
- Trep Concentration 60 min [9]: 0.816 µM

SMILES: CCCCCC(CCC1C(O)CC2Cc3c(cccc3OCC(=O)O)CC21)OC(=O)COc1ccc(OC(F)(F)F)cc1 (centres unmarked) [LXIV]
- Trep Concentration (μM) 0 min [1]: 0.0116 µM
- Trep Concentration (μM) 15 min [1]: 0.521 µM
- Trep Concentration (μM) 30 min [1]: 0.509 µM
- Trep Concentration (μM) 60 min [1]: 0.458 µM
- Trep Concentration (μM) 120 min [1]: 0.411 µM
- AUC [1]: 52.29 µmol·min/L
- Trep Concentration 0 min [2]: 0 µM
- Trep Concentration 30 min [2]: 0.0793 µM
- Trep Concentration 60 min [2]: 0.155 µM
- Trep Concentration 120 min [2]: 0.283 µM
- AUC [2]: 17.84 µmol·min/L
- Trep Concentration 0 min [3]: 0.803 µM
- Trep Concentration 10 min [3]: 0.882 µM
- Trep Concentration 20 min [3]: 0.91 µM
- Trep Concentration 30 min [3]: 0.902 µM
- Trep Concentration 60 min [3]: 0.753 µM
- Trep Concentration 0 min [4]: 0.911 µM
- Trep Concentration 10 min [4]: 0.752 µM
- Trep Concentration 20 min [4]: 0.667 µM
- Trep Concentration 30 min [4]: 0.596 µM
- Trep Concentration 60 min [4]: 0.351 µM
- AUC [4]: 35.93 µmol·min/L
- Trep Concentration (μM) 0 min [5]: 0.0196 µM
- Trep Concentration (μM) 15 min [5]: 0.466 µM
- Trep Concentration (μM) 30 min [5]: 0.514 µM
- Trep Concentration (μM) 60 min [5]: 0.485 µM
- Trep Concentration (μM) 120 min [5]: 0.451 µM
- AUC [5]: 54.06 µmol·min/L
- AUC [6]: 35.13 µmol·min/L
- AUC [7]: 51.27 µmol·min/L
- Trep Concentration (μM) 0 min [8]: 0.0456 µM
- Trep Concentration (μM) 15 min [8]: 0.374 µM
- Trep Concentration (μM) 30 min [8]: 0.291 µM
- Trep Concentration (μM) 60 min [8]: 0.234 µM
- Trep Concentration (μM) 120 min [8]: 0.206 µM
- AUC [8]: 29.21 µmol·min/L
- Trep Concentration 0 min [9]: 0.453 µM
- Trep Concentration 10 min [9]: 0.548 µM
- Trep Concentration 20 min [9]: 0.592 µM
- Trep Concentration 30 min [9]: 0.603 µM
- Trep Concentration 60 min [9]: 0.627 µM

SMILES: CCCCCC(CCC1C(O)CC2Cc3c(cccc3OCC(=O)O)CC21)OC(=O)CCC(=O)N1CCOCC1 (centres unmarked) [XXXIII]
- Trep Concentration (μM) 0 min [1]: 0 µM
- Trep Concentration (μM) 15 min [1]: 0.0192 µM
- Trep Concentration (μM) 30 min [1]: 0.0265 µM
- Trep Concentration (μM) 60 min [1]: 0.0464 µM
- Trep Concentration (μM) 120 min [1]: 0.0728 µM
- AUC [1]: 5.16 µmol·min/L
- Trep Concentration 0 min [2]: 0 µM
- Trep Concentration 30 min [2]: 0 µM
- Trep Concentration 60 min [2]: 0 µM
- Trep Concentration 120 min [2]: 0 µM
- AUC [2]: 0.00 µmol·min/L
- Trep Concentration 0 min [3]: 0.0107 µM
- Trep Concentration 10 min [3]: 0.0193 µM
- Trep Concentration 20 min [3]: 0.0291 µM
- Trep Concentration 30 min [3]: 0.0305 µM
- Trep Concentration 60 min [3]: 0.0498 µM
- Trep Concentration 0 min [4]: 0 µM
- Trep Concentration 10 min [4]: 0 µM
- Trep Concentration 20 min [4]: 0 µM
- Trep Concentration 30 min [4]: 0 µM
- Trep Concentration 60 min [4]: 0 µM
- AUC [4]: 0.00 µmol·min/L
- Trep Concentration (μM) 0 min [5]: 0 µM
- Trep Concentration (μM) 15 min [5]: 0.0287 µM
- Trep Concentration (μM) 30 min [5]: 0.03796 µM
- Trep Concentration (μM) 60 min [5]: 0.0584 µM
- Trep Concentration (μM) 120 min [5]: 0.0754 µM
- AUC [5]: 6.18 µmol·min/L
- AUC [6]: 5.10 µmol·min/L
- AUC [7]: 1.90 µmol·min/L
- Trep Concentration (μM) 0 min [8]: 0 µM
- Trep Concentration (μM) 15 min [8]: 0.0753 µM
- Trep Concentration (μM) 30 min [8]: 0.132 µM
- Trep Concentration (μM) 60 min [8]: 0.18 µM
- Trep Concentration (μM) 120 min [8]: 0.238 µM
- AUC [8]: 19.34 µmol·min/L
- Trep Concentration 0 min [9]: 0.0247 µM
- Trep Concentration 10 min [9]: 0.0494 µM
- Trep Concentration 20 min [9]: 0.0751 µM
- Trep Concentration 30 min [9]: 0.0888 µM
- Trep Concentration 60 min [9]: 0.13 µM
